Test results published in ChEMBL document CHEMBL2046314, “Chlorine atom substitution influences radical scavenging activity of 6-chromanol” (Bioorg Med Chem, 2012).

Legend:
[1] = Dissociation constant, pKa of the compound by UV-visible absorption spectroscopy; type: physicochemical
[2] = Antioxidant activity assessed as second order rate constant for galvinoxyl radical scavenging activity in acetonitrile solution by UV-visible absorption spectroscopy; type: functional
[3] = Hydroxyl radical scavenging activity assessed as reduction of DMPO-OH adduct formation using Fenton reaction by ESR spectroscopy; type: functional

Row | SMILES | pKa [1] | Activity [2] [M⁻¹ s⁻¹] | Activity [3]
1 | CC1(C)CCc2c(cc(Cl)c(O)c2Cl)O1 | 7.7 | 67 | Dose-dependent effect
2 | CC1(C)CCc2cc(O)ccc2O1 | 10.3 | 98 | Dose-dependent effect
3 | CC1(C)CCc2cc(O)cc(Cl)c2O1 | 9.8 | 21 | Dose-dependent effect
4 | CC1(C)CCc2c(ccc(O)c2Cl)O1 | 8.6 | 37 | Dose-dependent effect
5 | CC1(C)CCc2c(Cl)c(O)c(Cl)c(Cl)c2O1 | 7.1 | 54 | Dose-dependent effect
6 | CC1(C)CCc2cc(O)c(Cl)cc2O1 | 9.1 | 42 | Dose-dependent effect
